Measured values: patent US20130071854A1, “METHODS FOR THE IDENTIFICATION AND CHARACTERIZATION OF HDAC INTERACTING COMPOUNDS” (priority 2009, published 2013)
Read-outs that look alike come from different tables or passages of the source. One block for each molecule: values may come before it.

Tests used:
[1] = tested on: acetylated histones H3 and H4; assay: Cell-based histone acetylation assay (immunofluorescence, western blotting); design: species or system human; conditions: K562 and HeLa cells
MIER2 = assay: Chemoproteomic binding profiling, K562 cell extract, SAHA/ITF2357 probe matrix (Kd app), ELSA (ELM-SANT) domain protein; design: species or system human; conditions: ELSA (ELM-SANT) domain proteins
NuRD complex = assay: Chemoproteomic binding profiling, K562 cell extract, SAHA/ITF2357 probe matrix (Kd app); design: species or system human
RERE = assay: Chemoproteomic binding profiling, K562 cell extract, SAHA/ITF2357 probe matrix (Kd app), ELSA (ELM-SANT) domain protein; design: species or system human
MIER1 = assay: as above; design: species or system human; conditions: ELSA (ELM-SANT) domain proteins
MIER3 = assay: as above; design: species or system human; conditions: ELSA (ELM-SANT) domain proteins
CoREST complex = assay: Chemoproteomic binding profiling, K562 cell extract, SAHA/ITF2357 probe matrix (Kd app); design: species or system human
acetylated tubulin = assay: Cell-based tubulin acetylation assay (immunofluorescence, western blotting); design: species or system human; conditions: K562 and HeLa cells; immunofluorescence and western blotting
EHMT2 = assay: Chemoproteomic binding profiling, K562 cell extract, SAHA/ITF2357 probe matrix (Kd app), ELSA (ELM-SANT) domain proteins group; design: species or system human; conditions: protein EHMT2
[2] = target: T1, non-HDAC targets (e.g. BZW2, ISOC2, aldehyde dehydrogenases) (Homo sapiens, UniProt Q08209); assay: Chemoproteomic binding profiling, K562 cell extract, SAHA/ITF2357 probe matrix (Kd app); conditions: protein PPP3CA; selected HDACi off-targets
T1 construct: Kd^app PPP3CA; other: protein PPP3CA; selected HDACi off-targets

[3] = target: T2, non-HDAC targets (e.g. BZW2, ISOC2, aldehyde dehydrogenases) (Homo sapiens, UniProt Q9Y6E2); assay: as above; conditions: protein BZW2; selected HDACi off-targets
T2 construct: endogenous in cells; host or cells: K562 whole cell extract
T2 sequence (Q9Y6E2 1-419): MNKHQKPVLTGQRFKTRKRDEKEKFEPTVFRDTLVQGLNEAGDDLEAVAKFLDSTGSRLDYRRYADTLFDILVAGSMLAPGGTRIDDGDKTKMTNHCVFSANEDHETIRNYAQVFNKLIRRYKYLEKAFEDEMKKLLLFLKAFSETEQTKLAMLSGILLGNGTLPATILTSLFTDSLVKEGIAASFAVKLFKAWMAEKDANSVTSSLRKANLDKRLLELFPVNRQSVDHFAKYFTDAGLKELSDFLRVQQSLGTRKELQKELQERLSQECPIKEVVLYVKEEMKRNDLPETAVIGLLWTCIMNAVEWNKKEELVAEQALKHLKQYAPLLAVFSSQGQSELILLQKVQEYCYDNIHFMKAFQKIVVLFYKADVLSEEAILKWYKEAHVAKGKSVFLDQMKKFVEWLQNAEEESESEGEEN

[4] = target: T3, non-HDAC targets (e.g. BZW2, ISOC2, aldehyde dehydrogenases) (Homo sapiens, UniProt O94788); assay: as above; conditions: protein ALDH1A2; selected HDACi off-targets
T3 construct: endogenous in cells; host or cells: K562 whole cell extract
T3 sequence (O94788 1-518): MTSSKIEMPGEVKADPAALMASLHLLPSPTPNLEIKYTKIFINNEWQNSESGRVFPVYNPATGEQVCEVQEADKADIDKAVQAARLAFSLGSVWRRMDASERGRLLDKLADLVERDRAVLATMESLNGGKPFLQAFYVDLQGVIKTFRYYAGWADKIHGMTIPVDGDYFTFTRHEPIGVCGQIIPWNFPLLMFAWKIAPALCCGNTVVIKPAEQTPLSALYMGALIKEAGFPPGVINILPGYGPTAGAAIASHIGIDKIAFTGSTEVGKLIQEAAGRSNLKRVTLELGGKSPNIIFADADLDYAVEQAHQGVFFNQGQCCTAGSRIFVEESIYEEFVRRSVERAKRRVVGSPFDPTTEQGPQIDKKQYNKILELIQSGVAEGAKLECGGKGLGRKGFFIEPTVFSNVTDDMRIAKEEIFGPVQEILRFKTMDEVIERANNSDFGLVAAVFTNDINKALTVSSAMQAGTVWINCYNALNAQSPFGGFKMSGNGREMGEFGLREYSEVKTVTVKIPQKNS

[5] = target: T4, non-HDAC targets (e.g. BZW2, ISOC2, aldehyde dehydrogenases) (Homo sapiens, UniProt Q96AB3); assay: as above; conditions: protein ISOC2; selected HDACi off-targets
T4 construct: endogenous in cells; host or cells: K562 whole cell extract
T4 sequence (Q96AB3 1-205): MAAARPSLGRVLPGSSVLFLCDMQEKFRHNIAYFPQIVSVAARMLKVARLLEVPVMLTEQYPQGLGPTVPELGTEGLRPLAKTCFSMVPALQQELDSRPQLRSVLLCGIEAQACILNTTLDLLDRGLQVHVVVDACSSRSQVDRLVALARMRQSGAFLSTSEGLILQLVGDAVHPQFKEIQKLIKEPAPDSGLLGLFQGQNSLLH

[6] = target: T5, non-HDAC targets (e.g. BZW2, ISOC2, aldehyde dehydrogenases) (Homo sapiens, UniProt P16152); assay: as above; conditions: protein CBR1; selected HDACi off-targets
T5 construct: Kd^app CBR1; other: protein CBR1; selected HDACi off-targets
T5 sequence (P16152 1-277): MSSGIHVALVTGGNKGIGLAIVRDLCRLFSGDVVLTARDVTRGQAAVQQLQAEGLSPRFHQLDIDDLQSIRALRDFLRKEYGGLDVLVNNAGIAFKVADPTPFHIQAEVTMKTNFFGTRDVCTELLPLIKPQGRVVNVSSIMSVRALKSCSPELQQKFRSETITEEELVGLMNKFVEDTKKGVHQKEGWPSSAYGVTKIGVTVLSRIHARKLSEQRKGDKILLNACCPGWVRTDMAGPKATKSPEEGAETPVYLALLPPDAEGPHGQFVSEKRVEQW

HDAC1 = target: T6, HDAC1 (Homo sapiens, UniProt Q13547); assay: as above
T6 construct: used to probe endogenous HDACs in K562 whole cell extracts; endogenous in cells
T6 sequence (Q13547 whole entry): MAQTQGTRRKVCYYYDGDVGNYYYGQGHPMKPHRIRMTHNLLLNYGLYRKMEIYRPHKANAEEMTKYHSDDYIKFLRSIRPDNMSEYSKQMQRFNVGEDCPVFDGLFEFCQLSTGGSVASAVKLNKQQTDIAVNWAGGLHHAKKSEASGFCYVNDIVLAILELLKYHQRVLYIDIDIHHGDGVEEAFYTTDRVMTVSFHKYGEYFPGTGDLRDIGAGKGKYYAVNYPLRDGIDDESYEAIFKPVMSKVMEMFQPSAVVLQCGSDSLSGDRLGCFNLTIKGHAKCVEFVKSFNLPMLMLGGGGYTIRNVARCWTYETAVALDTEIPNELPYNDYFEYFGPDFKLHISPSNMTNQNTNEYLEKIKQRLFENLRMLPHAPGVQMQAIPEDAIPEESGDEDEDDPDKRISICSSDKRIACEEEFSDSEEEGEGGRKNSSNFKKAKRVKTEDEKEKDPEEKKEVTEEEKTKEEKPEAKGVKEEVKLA

[7] = tested on: T7, MiDAC complex (HDAC1/2, DNTTIP1, CDYL, MIDEAS); assay: as above; design: species or system human
T7 construct: Kd^app MIDEAS; other: protein MIDEAS; MiDAC complex; Kd^app DNTTIP1; other: protein DNTTIP1

Sin3 complex = assay: as above; design: species or system human

- Kd [2]: > 85 µM
- Kd [3]: > 85 µM
- Kd [4]: > 85 µM
- Kd [5]: > 85 µM
- Kd [6]: > 85 µM
Structure (SMILES): CC(=O)Nc1ccc(C(=O)Nc2ccccc2N)cc1 [tacedinaline]
- histone acetylation (in words) [1]: elicited staining of acetylated histones
- Kd (MIER2): 184 µM
- Kd (NuRD complex; read-out: Kd^app CHD4): > 85 µM
- Kd (NuRD complex; read-out: Kd^app GATAD2A): 423 µM
- Kd (NuRD complex; read-out: Kd^app GATAD2B): 306 µM
- Kd (NuRD complex; read-out: Kd^app MBD2): > 85 µM
- Kd (NuRD complex; read-out: Kd^app MBD3): 265 µM
- Kd (NuRD complex; read-out: Kd^app MTA1): 152 µM
- Kd (NuRD complex; read-out: Kd^app MTA2): 226 µM
- Kd (NuRD complex; read-out: Kd^app MTA3): 263 µM
- Kd (RERE): > 85 µM
- Kd (MIER1): 195 µM
- Kd (MIER3): 171 µM
- Kd (CoREST complex; read-out: Kd^app GSE1): 122 µM
- Kd (CoREST complex; read-out: Kd^app HMG20A): 139 µM
- Kd (CoREST complex; read-out: Kd^app HMG20B): 168 µM
- Kd (CoREST complex; read-out: Kd^app RCOR1): 114 µM
- Kd (CoREST complex; read-out: Kd^app RCOR2): 196 µM
- Kd (CoREST complex; read-out: Kd^app RCOR3): 159 µM
- Kd (CoREST complex; read-out: Kd^app ZMYM2): > 85 µM
- Kd (CoREST complex; read-out: Kd^app ZMYM3): > 85 µM
- tubulin acetylation (in words) (acetylated tubulin): did not affect tubulin
- Kd (EHMT2): > 85 µM

- Kd (HDAC1): 0.01 µM
Structure (SMILES): C/C=C1\NC(=O)[C@H]2CSSCC/C=C/[C@H](CC(=O)N[C@H](C(C)C)C(=O)N2)OC(=O)[C@H](C(C)C)NC1=O [romidepsin]

Structure (SMILES): COc1ccc(Cn2ccc3ccc(C(=O)NO)cc32)cc1 [PCI-34051]
- Kd (MIER2): > 59.7 µM
- Kd (NuRD complex; protein GATAD2A, NuRD complex, read-out: Kd^app GATAD2A): > 59.7 µM
- Kd (NuRD complex; protein GATAD2B, NuRD complex, read-out: Kd^app GATAD2B): > 59.7 µM
- Kd (NuRD complex; protein MBD2, NuRD complex, read-out: Kd^app MBD2): > 59.7 µM
- Kd (NuRD complex; protein MBD3, NuRD complex, read-out: Kd^app MBD3): > 59.7 µM
- Kd (NuRD complex; protein MTA1, NuRD complex, read-out: Kd^app MTA1): > 59.7 µM
- Kd (NuRD complex; protein MTA2, NuRD complex, read-out: Kd^app MTA2): > 59.7 µM
- Kd (NuRD complex; protein MTA3, NuRD complex, read-out: Kd^app MTA3): > 59.7 µM
- Kd (RERE; protein RERE, ELSA (ELM-SANT) domain proteins): > 59.7 µM
- Kd ([7]; protein DNTTIP1, read-out: Kd^app DNTTIP1): > 59.7 µM
- Kd ([7]; protein MIDEAS, read-out: Kd^app MIDEAS): > 59.7 µM
- Kd (MIER1): > 59.7 µM
- Kd (Sin3 complex; protein SAP30, read-out: Kd^app SAP30): > 59.7 µM
- Kd (Sin3 complex; protein SIN3A, read-out: Kd^app SIN3A): > 59.7 µM
- Kd (Sin3 complex; protein SIN3B, read-out: Kd^app SIN3B): > 59.7 µM
- Kd (MIER3): > 59.7 µM
- Kd (CoREST complex; protein GSE1, CoREST complex, read-out: Kd^app GSE1): > 59.7 µM
- Kd (CoREST complex; protein HMG20A, CoREST complex, read-out: Kd^app HMG20A): > 59.7 µM
- Kd (CoREST complex; protein HMG20B, CoREST complex, read-out: Kd^app HMG20B): > 59.7 µM
- Kd (CoREST complex; protein PHF21A, CoREST complex, read-out: Kd^app PHF21A): > 59.7 µM
- Kd (CoREST complex; protein RCOR1, CoREST complex, read-out: Kd^app RCOR1): > 59.7 µM
- Kd (CoREST complex; protein RCOR2, CoREST complex, read-out: Kd^app RCOR2): > 59.7 µM
- Kd (CoREST complex; protein RCOR3, CoREST complex, read-out: Kd^app RCOR3): > 59.7 µM
- Kd (CoREST complex; protein ZMYM2, CoREST complex, read-out: Kd^app ZMYM2): > 59.7 µM
- Kd (CoREST complex; protein ZMYM3, CoREST complex, read-out: Kd^app ZMYM3): > 59.7 µM
- Kd (EHMT2): > 59.7 µM
- Kd [2]: 59.7 µM
- Kd [3]: 5.04 µM
- Kd [4]: > 59.7 µM
- Kd [5]: > 59.7 µM
- Kd [6]: 12.8 µM
